Data from ChEMBL document CHEMBL4834430, “Design and Structure-Activity Relationships of Isothiocyanates as Potent and Selective N-Acylethanolamine-Hydrolyzing Acid Amidase Inhibitors” (J Med Chem, 2021).
Activity calls are given as the source filed them. No cut-off for these calls is given here.

Legend:
[1] = target: T1, N-acylethanolamine-hydrolyzing acid amidase (Homo sapiens, UniProt Q02083); assay: Inhibition of human NAAA using N-(4-methyl coumarin)-palmitamide as fluorogenic substrate preincubated for 90 mins followed by substrate addition by fluorescence assay
T1 sequence (Q02083 whole entry): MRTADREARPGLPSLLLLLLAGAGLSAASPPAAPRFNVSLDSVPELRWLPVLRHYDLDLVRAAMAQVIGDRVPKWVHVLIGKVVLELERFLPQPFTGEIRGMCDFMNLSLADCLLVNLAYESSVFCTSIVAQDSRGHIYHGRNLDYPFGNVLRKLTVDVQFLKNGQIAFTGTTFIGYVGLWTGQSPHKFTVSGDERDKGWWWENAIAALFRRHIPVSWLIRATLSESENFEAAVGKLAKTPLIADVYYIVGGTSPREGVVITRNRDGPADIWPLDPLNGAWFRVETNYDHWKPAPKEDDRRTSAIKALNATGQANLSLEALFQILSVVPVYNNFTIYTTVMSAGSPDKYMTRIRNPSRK

[2] = target: T2, N-acylethanolamine-hydrolyzing acid amidase (Homo sapiens) (UniProt Q02083); assay: Inhibition of human NAAA at 1 uM using N-(4-methyl coumarin)-palmitamide as fluorogenic substrate preincubated for 90 mins followed by substrate addition by fluorescence assay relative to control
T2 sequence (whole entry): T1 sequence (Q02083 whole entry)

[3] = Half life in mouse liver microsomes at 1 uM in presence of NADPH by LC-MS/MS analysis; format: ADME, Microsome
[4] = Drug concentration in plasma of CD-1 mouse at 8 mg/kg, po administered as single cassette dose measured after 30 mins; format: ADME, organism-based
[5] = Drug concentration in brain of CD-1 mouse at 2 mg/kg, iv administered as single cassette dose measured after 15 mins; format: ADME, organism-based; settings: read-out: Ct
[6] = Drug concentration in plasma of CD-1 mouse at 8 mg/kg, po administered as single cassette dose measured after 60 mins; format: ADME, organism-based
[7] = target: T2, N-acylethanolamine-hydrolyzing acid amidase (Homo sapiens); assay: Covalent inhibition of human NAAA assessed as ratio of Kinact/Ki
[8] = Drug concentration in plasma of CD-1 mouse at 2 mg/kg, iv administered as single cassette dose measured after 15 mins; format: ADME, organism-based
[9] = Half life in rat liver microsomes at 1 uM in presence of NADPH by LC-MS/MS analysis; format: ADME, Microsome
[10] = Half life in human liver microsomes at 1 uM in presence of NADPH by LC-MS/MS analysis; format: ADME, Microsome
[11] = target: T3, Cathepsin K (Homo sapiens) (UniProt P43235); assay: Inhibition of recombinant human Cathepsin K at 1 uM using Z-Phe-Arg-AMC as fluorogenic substrate preincubated for 120 mins followed by substrate addition by fluorescence assay
T3 sequence (whole entry): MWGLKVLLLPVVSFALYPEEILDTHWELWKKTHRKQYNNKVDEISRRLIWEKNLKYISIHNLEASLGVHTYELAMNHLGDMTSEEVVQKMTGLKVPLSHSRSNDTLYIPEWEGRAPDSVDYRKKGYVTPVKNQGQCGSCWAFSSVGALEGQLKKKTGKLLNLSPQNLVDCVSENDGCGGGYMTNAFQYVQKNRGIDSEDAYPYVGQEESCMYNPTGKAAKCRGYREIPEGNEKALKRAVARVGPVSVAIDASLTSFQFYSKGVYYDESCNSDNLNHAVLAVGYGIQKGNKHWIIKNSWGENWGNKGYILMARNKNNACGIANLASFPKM

[12] = target: T3, Cathepsin K (Homo sapiens); assay: Inhibition of recombinant human Cathepsin K at 100 nM using Z-Phe-Arg-AMC as fluorogenic substrate preincubated for 120 mins followed by substrate addition by fluorescence assay relative to control
Cathepsin K = target: T4, Cathepsin K (Homo sapiens, UniProt P43235); assay: Inhibition of recombinant human Cathepsin K using Z-Phe-Arg-AMC as fluorogenic substrate preincubated for 120 mins followed by substrate addition by fluorescence assay
T4 sequence (P43235 whole entry): T3 sequence (whole entry)

In the case of `COc1ccc(-c2ccc(COC3C[C@@H](N=C=S)C3(C)C)nc2)cc1F` (single isomer, unassigned), the IC50 [1] is reported as 246 nM.

`COc1ccc(Oc2ccc(C(=O)N[C@H]3C[C@@H](N=C=S)C3)cc2)cc1` gave an IC50 [1] of 1420 nM.

In the case of `COc1ccc(-c2ccc(CN3CC(N=C=S)C3)c(F)c2)cc1F`, the IC50 [1] is reported as 176 nM.

Molecule `S=C=NC1CN(CCCCCCc2ccccc2)C1` has an IC50 [1] of 8.3 nM.

Molecule `COc1cnc(-c2ccc(CO[C@H]3C[C@@H](N=C=S)C3)[n+]([O-])c2)cc1F` has an IC50 [1] of 23.5 nM.

`COc1ccc(-c2ccc(CO[C@H]3CCC[C@@H](N=C=S)C3)cc2)cc1F` gave an inhibition [2] of 35%.

`COc1ccc(-c2ccc3c(c2)CN([C@H]2C[C@@H](N=C=S)C2)CC3)cc1F` gave an IC50 [1] of 356 nM.

For `Cn1cc(-c2ccc(CO[C@H]3C[C@@H](N=C=S)C3)c(F)c2)cn1`, the IC50 [1] was 517 nM.

For `COc1ccc(N2CCC(C(=O)N[C@H]3C[C@@H](N=C=S)C3)CC2)cc1`, the IC50 [1] was 137 nM.

Work on `Fc1cc(-c2ccc3c(c2)OCO3)ccc1CO[C@H]1C[C@@H](N=C=S)C1` yielded a half-life at 1 µM [3] of 2.4 min, a concentration at 0.5 h [4] of 31 ng/mL and a concentration at 0.25 h [5] of 14 ng/g. For the same molecule, the concentration at 1 h [6] was 13 ng/mL, the IC50 [1] was 8.8 nM and the Ratio [7] was 3.44 10^5/M/s. It also gave a concentration at 0.25 h [8] of 244 ng/mL, a half-life at 1 µM [9] of 6.5 min and a half-life at 1 µM [10] of 3.3 min.

With `COc1ccc(-c2ccc(S(=O)(=O)N[C@H]3C[C@@H](N=C=S)C3)cc2)cc1` the inhibition [11] was “inactive”, the concentration at 0.5 h [4] was 20 ng/mL and the concentration at 0.25 h [5] was 1090 ng/g. The concentration at 1 h [6] was 20 ng/mL, the IC50 [1] was 2.3 nM and the concentration at 0.25 h [8] was 164 ng/mL.

In the case of `COc1ccc(CCCC(=O)N[C@H]2C[C@@H](N=C=S)C2)cc1`, the IC50 [1] is reported as 62 nM.

Molecule `COc1cnc(-c2cnc(CO[C@H]3C[C@@H](N=C=S)C3)c(F)c2)cc1F` has a half-life at 1 µM [3] of 6.3 min, an IC50 [1] of 19.5 nM and a half-life at 1 µM [9] of 7.4 min. For the same molecule, the half-life at 1 µM [10] was 7.1 min and the inhibition [12] was 43.7%.

`COc1cnc(-c2ccc(CO[C@H]3C[C@@H](N=C=S)C3)cn2)cc1F` showed a half-life at 1 µM [3] of 5.1 min, an IC50 [1] of 15 nM and a half-life at 1 µM [9] of 10.2 min. The half-life at 1 µM [10] was 11.8 min and the inhibition [12] was 56.8%.

For `S=C=N[C@H]1C[C@@H](OCc2ccc(-c3ccc4occc4c3)cn2)C1`, the IC50 [1] was 8.3 nM and the inhibition [12] was 55.8%.

`S=C=N[C@H]1C[C@H](OCc2ccc(-c3ccccc3)cc2)C1` showed an IC50 [1] of 4300 nM.

`Fc1cc(-c2cccc(OCc3ccccc3)c2)ccc1CO[C@H]1C[C@@H](N=C=S)C1` gave an IC50 [1] of 99.8 nM.

`COc1ccc(-c2cc(CO[C@H]3C[C@@H](N=C=S)C3)on2)cc1` showed an IC50 [1] of 43.6 nM.

`Fc1cc(-c2ccc3c(c2)CCO3)ccc1CO[C@H]1C[C@@H](N=C=S)C1` showed an IC50 (Cathepsin K) of 83.5 nM and an IC50 [1] of 4.5 nM.

Work on `CN(Cc1ccc(-c2ccccc2)cc1)[C@H]1C[C@@H](N=C=S)C1` yielded a half-life at 1 µM [3] of 5.1 min, an IC50 [1] of 1920 nM and a half-life at 1 µM [9] of 4.4 min. For the same molecule, the half-life at 1 µM [10] was 14.7 min.

In the case of `COc1ccc(-c2ccc(C(=O)N[C@]34C[C@](N=C=S)(C3)C4)c(F)c2)cc1`, the IC50 [1] is reported as 1230 nM.

`Fc1cc(-c2ccc3c(c2)OCCO3)ccc1CO[C@H]1C[C@@H](N=C=S)C1` gave a concentration at 0.5 h [4] of 12 ng/mL, a concentration at 0.25 h [5] of 12 ng/g and a concentration at 1 h [6] of 7 ng/mL. For the same molecule, the IC50 [1] was 11.8 nM, the Ratio [7] was 2.43 10^5/M/s and the concentration at 0.25 h [8] was 168 ng/mL.

Molecule `COc1ccc(-c2cc(C(=O)N[C@H]3C[C@@H](N=C=S)C3)on2)cc1` has an IC50 [1] of 91.5 nM.

`COc1ccc(-c2noc(CO[C@H]3C[C@@H](N=C=S)C3)n2)cc1` gave an IC50 [1] of 493 nM.

With `COc1ccc(-c2ccc(C(=O)N[C@H]3C[C@@H](N=C=S)C3)nc2)cc1` the inhibition [11] was “inactive”, the concentration at 0.5 h [4] was 12 ng/mL and the concentration at 0.25 h [5] was 809 ng/g. The concentration at 1 h [6] was 8 ng/mL, the IC50 [1] was 7.6 nM and the concentration at 0.25 h [8] was 264 ng/mL.

Work on `COc1cc(-c2ccc(CO[C@H]3C[C@@H](N=C=S)C3)c(F)c2)ccc1F` yielded an IC50 [1] of 155 nM.

`COc1ccc(-c2ccc(O[C@H]3C[C@@H](N=C=S)C3)cc2)cc1F` gave an IC50 [1] of 35.9 nM.

With `COc1ccc(-c2ccc(OC(=O)N[C@H]3C[C@@H](N=C=S)C3)cc2)cc1` the half-life at 1 µM [3] was 6.2 min, the IC50 [1] was 7 nM and the half-life at 1 µM [9] was 5 min. For the same molecule, the half-life at 1 µM [10] was 6.4 min.
